In article PMC4749975, “Selective binding modes and allosteric inhibitory effects of lupane triterpenes on protein tyrosine phosphatase 1B” (Scientific Reports, 2016):
“Also recorded” adds a separate entry of the source. Read-outs that look alike come from different tables or passages of the source.

Assays:
[1] = molecular target: T1, recombinant human TCPTP protein (Homo sapiens, UniProt P17706); assay: Inhibiting TCPTP by pNPP phosphatase assay; format: biochemical; conditions: for Fold changes (TCPTP IC50 / PTP1B IC50): PTP1B IC50 from literature, TCPTP IC50 measured
T1 construct: purchased Abcam Inc (Cambridge, MA) ab42575
T1 sequence (P17706 1-415): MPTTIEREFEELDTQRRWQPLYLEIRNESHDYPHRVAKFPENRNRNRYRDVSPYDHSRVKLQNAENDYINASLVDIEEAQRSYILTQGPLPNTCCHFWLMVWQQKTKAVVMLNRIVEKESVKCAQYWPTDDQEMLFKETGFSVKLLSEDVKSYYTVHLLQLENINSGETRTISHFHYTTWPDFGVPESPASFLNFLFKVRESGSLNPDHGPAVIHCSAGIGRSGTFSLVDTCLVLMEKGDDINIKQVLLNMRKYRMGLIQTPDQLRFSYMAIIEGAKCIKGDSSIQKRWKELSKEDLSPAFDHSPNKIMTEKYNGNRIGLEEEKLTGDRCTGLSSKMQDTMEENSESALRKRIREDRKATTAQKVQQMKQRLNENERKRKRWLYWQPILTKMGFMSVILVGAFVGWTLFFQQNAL

PTP1B [2] = molecular target: T2, PTP1B (Homo sapiens, UniProt P18031); assay: PTP1B inhibition kinetics assay (Lineweaver-Burk, pNPP); format: biochemical; conditions: Lineweaver-Burk plot; for mode of inhibition of PTP1B: 6 pNPP and 4 compound concentrations
T2 sequence (P18031 1-435): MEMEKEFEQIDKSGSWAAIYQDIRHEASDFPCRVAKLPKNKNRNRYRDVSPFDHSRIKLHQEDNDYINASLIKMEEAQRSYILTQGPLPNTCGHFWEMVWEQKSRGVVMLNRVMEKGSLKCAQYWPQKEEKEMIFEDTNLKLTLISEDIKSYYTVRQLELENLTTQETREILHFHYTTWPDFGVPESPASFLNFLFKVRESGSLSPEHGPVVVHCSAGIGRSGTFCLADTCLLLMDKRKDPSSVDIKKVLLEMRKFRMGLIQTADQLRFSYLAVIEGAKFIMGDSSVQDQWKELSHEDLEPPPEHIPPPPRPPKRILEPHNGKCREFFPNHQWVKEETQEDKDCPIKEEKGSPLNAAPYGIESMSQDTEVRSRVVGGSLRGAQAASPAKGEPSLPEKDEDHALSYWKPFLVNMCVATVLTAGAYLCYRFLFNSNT
Protocol: The Lupeol group was used as a control group. The absorbance at 405 nm was detected by a spectraMAX 384 microplate spectrophotometer twice every minute for a total of 15 min. Michaelis-Menten constant (Km) and maximum velocity (Vmax) of PTP1B were determined via Lineweaver-Burk plots using the GraphPad Prism 5 program (GraphPad Software Inc, La Jolla, CA).

PTP1B [3] = molecular target: T2, PTP1B; assay: Estimation of Ki and binding free energy from experimental IC50 (IC50-to-Ki converter)
PTP1B [4] = molecular target: T2, PTP1B; conditions: cited from earlier work; for IC50: read-out: IC50 PTP1B
PTP1B [5] = molecular target: T3, PTP1B (Mus musculus, UniProt P35821); assay: Immunoprecipitation assay of PTP1B activity in TNFα-treated mHypoE-46 neurons; format: cell-based
T3 construct: endogenous in cells; host or cells: mHypoE-46 mouse hypothalamic neurons
T3 sequence (P35821 1-432): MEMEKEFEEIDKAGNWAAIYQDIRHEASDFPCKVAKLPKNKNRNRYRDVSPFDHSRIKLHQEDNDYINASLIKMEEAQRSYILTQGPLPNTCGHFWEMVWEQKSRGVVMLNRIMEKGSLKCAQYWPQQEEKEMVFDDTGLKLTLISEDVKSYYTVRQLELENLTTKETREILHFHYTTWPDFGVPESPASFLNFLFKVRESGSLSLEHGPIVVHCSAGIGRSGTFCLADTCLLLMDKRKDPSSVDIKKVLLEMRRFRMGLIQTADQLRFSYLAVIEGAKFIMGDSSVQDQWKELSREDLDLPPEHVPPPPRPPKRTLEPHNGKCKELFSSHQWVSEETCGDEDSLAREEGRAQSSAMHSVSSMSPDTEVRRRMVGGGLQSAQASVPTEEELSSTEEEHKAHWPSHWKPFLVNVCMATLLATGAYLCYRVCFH
Protocol: (§1) Mouse hypothalamic cell line (mHypoE-46) neurons were grown in monolayer in Dulbecco’s modified Eagle medium (DMEM) (Sigma D5796, Castle Hill, NSW) with 10% fetal bovine serum (FBS) (SAFC Biosciences Inc, Lenexa, KS) and 1% penicillin/streptomycin. They were maintained at 37 °C with 5% CO2. Prior to treatment, the cell culture medium was replaced with DMEM containing 1% penicillin/streptomycin for 4 h. Murine TNFα was obtained from Sigma-Aldrich (Castle Hill, NSW). Lupeol and betulinic acid were dissolved in Dimethyl sulfoxide (DMSO), then diluted in sterile water, and mixed with serum free cell culture medium. The DMSO concentration was controlled below 0.15%.
Based on the instructions of the Pierce Classic IP Kit (#26146, Thermo Fisher Scientific Inc, IL) with minor modifications, PTP1B was immunoprecipitated using the 25 μg PTP1B antibody (sc-1718, Santa Cruz Biotechnology Inc, Dallas, TX) for 12 h at 4 °C. Immune complexes were isolated by adding the protein G-agarose, washed three times in the phosphatase assay buffer from the EnzoLyte Colorimetric pNPP Protein Phosphatase Assay kit (Anaspec, San Jose, CA), and resuspended in the same buffer. Samples were analysed for the phosphatase activity using the same pNPP assay kit mentioned above.

PTP1B [6] = assay: Western blot of PTP1B protein expression in mHypoE-46 neurons; format: cell-based, Mouse; conditions: for PTP1B protein expression: 10 h after TNFα 8 h
Protocol: as §1
The method was described in our previous study with modifications, mHypoE-46 neurons were washed with ice-cold PBS and lysed in NP-40 lysis buffer (Invitrogen Australia Pty Ltd, Mulgrave, VIC) containing a protease inhibitor cocktail, beta-glycerophosphate and phenylmethanesulfonyl fluoride (PMSF) (Sigma, Castle Hill, NSW). Cell lysates were centrifuged at 14000 rpm for 10 min at 4 °C. The supernatants were collected and protein concentrations were determined using the DC assay (Bio-Rad Laboratories, Gladesville, NSW) according to the manufacturer’s instructions. Equal amounts of protein (10 μg) were separated on 4–12% Bis-Tris gels (Bio-Rad Laboratories, Gladesville, NSW,) using SDS-PAGE. Following electrophoresis (120 V for 2 h), the proteins were transferred to polyvinylidene difluoride membranes (100 V for 1 h). Membranes were blocked in 5% bovine serum albumin (BSA), followed by incubation with the primary antibodies PTP1B (sc-1718, 1:500, Santa Cruz Biotechnology Inc, Dallas, TX) in 1% BSA overnight at 4 °C. […] The bands corresponding to the proteins of interest were scanned and densitometrically analysed using the automatic imaging analysis system Quantity One (Bio-Rad Laboratories, Gladesville, NSW). All quantitative analyses were normalised to β-actin.

[7] = pNPP assay, 25 °C, read-out: IC50 TCPTP

## C=C(C)[C@@H]1CC[C@]2(CO)CC[C@]3(C)[C@H](CC[C@@H]4[C@@]5(C)CC[C@H](O)C(C)(C)[C@@H]5CC[C@]43C)[C@@H]12 [Betulin, betulin]
[1]
  IC50: 119 µM
  Fold changes (TCPTP IC50 / PTP1B IC50): 7 fold
PTP1B [2]
  Km value of PTP1B in presence of compound: altered Km value
  Vmax value of PTP1B in presence of compound: decreased Vmax value
  mode of inhibition of PTP1B: mixed-type inhibition
PTP1B [3]
  Ki: 15.3 µM
PTP1B [4]
  IC50: 15.3 µM

## C=C(C)[C@@H]1CC[C@]2(C)CC[C@]3(C)[C@H](CC[C@@H]4[C@@]5(C)CCC(=O)C(C)(C)[C@@H]5CC[C@]43C)[C@@H]12 [Lupenone, lupenone]
[1]
  Fold changes (TCPTP IC50 / PTP1B IC50): 6 fold
[1]; [7]
  IC50: 91.5 µM
PTP1B [4]
  mode of inhibition of PTP1B (literature): non-competitive inhibitors
  IC50: 13.7 µM

## TNFα
PTP1B [5]; TNFα 20 ng/ml, 8 h
  increase of PTP1B activity: 1.5 fold
PTP1B [6]; TNFα 20 ng/ml, 8 h
  increase of PTP1B expression: 1.75 fold

## C=C(C)[C@@H]1CC[C@]2(C(=O)O)CC[C@]3(C)[C@H](CC[C@@H]4[C@@]5(C)CC[C@H](O)C(C)(C)[C@@H]5CC[C@]43C)[C@@H]12 [Betulinic acid, betulinic acid]
[1]
  Fold changes (TCPTP IC50 / PTP1B IC50): 81 fold
[1]; [7]
  IC50: 124 µM
PTP1B [2]
  Km value of PTP1B in presence of compound: constant Km value
  Vmax value of PTP1B in presence of compound: decreased Vmax value
  mode of inhibition of PTP1B: non-competitive inhibitor
PTP1B [5]; betulinic acid 7.5 μM, 10 h after TNFα 8 h
  inhibition of PTP1B enzyme activity: significantly inhibited
PTP1B [5]; betulinic acid 7.5 μM, 10 h after TNFα 8 h, read-out: inhibition of PTP1B enzyme activity
  inhibition at 7.5 µM: 35%
PTP1B [6]; betulinic acid 7.5 μM
  PTP1B protein expression: slightly decreased; also recorded: do not significantly decrease
PTP1B [3]; IC50-to-Ki converter, [E] 0.01, [S] 20000 µM, read-out: Constant of inhibition [Ki]
  Ki: 1.5 µM

## CCc1oc2cc(S(=O)(=O)Nc3ccc(S(=O)(=O)Nc4nccs4)cc3)ccc2c1C(=O)c1cc(Br)c(O)c(Br)c1 [Compound 3, reference compound]
[1]; [7]
  IC50: 62.7 µM

## C=C(C)[C@@H]1CC[C@]2(C)CC[C@]3(C)[C@H](CC[C@@H]4[C@@]5(C)CC[C@H](O)C(C)(C)[C@@H]5CC[C@]43C)[C@@H]12 [Lupeol, lupeol]
[1]
  IC50: 126 µM
  Fold changes (TCPTP IC50 / PTP1B IC50): 22 fold
PTP1B [5]; lupeol 28 μM, 10 h after TNFα 8 h
  inhibition of PTP1B enzyme activity: significantly inhibited
PTP1B [5]; lupeol 28 μM, 10 h after TNFα 8 h, read-out: inhibition of PTP1B enzyme activity
  inhibition at 28 µM: 35%
PTP1B [6]; lupeol 28 μM
  PTP1B protein expression: slightly decreased; also recorded: do not significantly decrease
PTP1B [3]
  Ki: 5.6 µM
PTP1B [4]
  mode of inhibition of PTP1B (literature): non-competitive inhibitor
  IC50: 5.6 µM
